Among the data in patent US9586931B2 (Merck Sharp & Dohme Corp., priority 2012, dated 2017) are IC50 values, retold here.

SMILES strings stand for the structures.

In this test the target is T1, recombinant human GST-Syk (Homo sapiens, UniProt P43405).
T1 construct: purchased Carna Biosciences 08-176
Kind of test: Homogeneous Time-Resolved Fluorescence (HTRF) assay for the recombinant human Syk enzyme. It is filed as biochemical. The following applies: recombinant human GST-Syk 5 pM, ATP 25 μM, 10-dose titration 10 μM to 0.508 nM; read-out: rhSYK Activity IC50. In short, it runs like this:
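Detection used time-resolved fluorescence 30 min after adding a quench mix (40 mM EDTA, 15 mM Tris pH 7.5, 0.01% Tween 20) containing 2 nM Europium anti-pTyr antibody and 70 nM streptavidin-APC. This followed 45 min of room-temperature peptide phosphorylation by recombinant GST-tagged human Syk.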
On to `Cc1cc(Nc2cc(C(F)(F)F)ccn2)nc(-c2cn(CC(O)C(C)(C)O)nn2)c1` (stereo not drawn) [Example 10.12, 3-methyl-1-[4-(4-methyl-6-{[4-(trifluoromethyl)pyridin-2-yl]amino}pyridin-2-yl)-1H-1,2,3-triazol-1-yl]butane-2,3-diol], for which the half-inhibitory concentration (IC50) (commonly the concentration that gives 50% inhibition) was determined as 0.0233 µM.

In the case of `Cc1cc(Nc2nccc(C(F)(F)F)n2)cc(-n2cc(CCC(=O)O)nn2)c1` [Example 15.14, 3-[1-(3-methyl-5-{[4-(trifluoromethyl)pyrimidin-2-yl]amino}phenyl)-1H-1,2,3-triazol-4-yl]propanoic acid], the IC50 stood at 0.0796 µM.

As for `Cc1cc(Nc2ncc(F)c(C(F)F)n2)cc(-c2cn(CC3OC(=O)NC3C)nn2)c1` (single isomer, unassigned) [Example 7.37, 5-{[4-(3-{[4-(difluoromethyl)-5-fluoropyrimidin-2-yl]amino}-5-methylphenyl)-1H-1,2,3-triazol-1-yl]methyl}-4-methyl-1,3-oxazolidin-2-one], the IC50 amounted to 0.0159 µM.

With `Cc1cc(Nc2cc(C(F)(F)F)ccn2)nc(-c2cn(-c3ccc(C(N)=O)cc3)nn2)c1` [Example 1.15, 4-[4-(4-methyl-6-{[4-(trifluoromethyl)pyridin-2-yl]amino}pyridin-2-yl)-1H-1,2,3-triazol-1-yl]benzamide], the IC50 is 0.0154 µM.

As for `Cc1cc(Nc2nccc(C(F)(F)F)n2)cc(-c2cn(CCCO)nn2)c1` [Example 5.77, 3-[4-(3-methyl-5-{[4-(trifluoromethyl)pyrimidin-2-yl]amino}phenyl)-1H-1,2,3-triazol-1-yl]propan-1-ol], the IC50 is 0.0507 µM.

As for `Cc1cc(Nc2cc(C(F)(F)F)ccn2)nc(-c2cn(CC(O)C(C)O)nn2)c1` (stereo not drawn) [Example 10.13, 1-[4-(4-methyl-6-{[4-(trifluoromethyl)pyridin-2-yl]amino}pyridin-2-yl)-1H-1,2,3-triazol-1-yl]butane-2,3-diol], the IC50 was determined as 0.0188 µM.

Regarding `Cc1cc(Nc2cc(C(F)(F)F)ccn2)nc(-c2cn(C3CCC(C(=O)O)c4ccccc43)nn2)c1` (stereo not drawn) [Example 3.19, 4-[4-(4-methyl-6-{[4-(trifluoromethyl)pyridin-2-yl]amino}pyridin-2-yl)-1H-1,2,3-triazol-1-yl]-1,2,3,4-tetrahydronaphthalene-1-carboxylic acid], the IC50 turned out to be 0.016 µM.

With `Cc1cc(Nc2cc(C(F)F)ccn2)nc(-c2cn(C(C)C3CNC(=O)O3)nn2)c1` (single isomer, unassigned) [Example 7.10, 5-(1-(4-(6-((4-(difluoromethyl)pyridin-2-yl)amino)-4-methylpyridin-2-yl)-1H-1,2,3-triazol-1-yl)ethyl)oxazolidin-2-one], the IC50 is 0.0017 µM.

With `Cc1cc(Nc2cc(C(F)(F)F)ccn2)nc(-c2cn(C(C)C(=O)NCc3cccc4nsnc34)nn2)c1` (stereo not drawn) [Example 1.33, N-(2,1,3-benzothiadiazol-4-ylmethyl)-2-[4-(4-methyl-6-{[4-(trifluoromethyl)pyridin-2-yl]amino}pyridin-2-yl)-1H-1,2,3-triazol-1-yl]propanamide], the half-inhibitory concentration (IC50) was 0.325 µM.

In the case of `Cc1cc(Nc2nccc(C(F)(F)F)n2)cc(-c2cn(C3CCC(C(=O)OC(C)(C)C)CC3)nn2)c1` (stereo not drawn) [Example 9.4, tert-butyl 4-[4-(3-methyl-5-{[4-(trifluoromethyl)-pyrimidin-2-yl]amino}-phenyl)-1H-1,2,3-triazol-1-yl]cyclohexane-carboxylate], the concentration for half-maximal inhibition (IC50) amounted to 7.22 µM.

`Cc1cc(Nc2cc(C(F)(F)F)ccn2)nc(-c2cn(C(CO)c3ccccc3)nn2)c1` (stereo not drawn) [Example 13.8, 2-[4-(4-methyl-6-{[4-(trifluoromethyl)pyridin-2-yl]amino}pyridin-2-yl)-1H-1,2,3-triazol-1-yl]-2-phenylethanol]: the IC50 was found to be 0.0071 µM.

Regarding `Cc1cc(Nc2cc(C(F)(F)F)ccn2)nc(-c2cn(C3CCC(C(N)=O)C(C)(C)C3)nn2)c1` (single isomer, unassigned) [Example 1.5, 2,2-dimethyl-4-[4-(4-methyl-6-{[4-(trifluoromethyl)pyridin-2-yl]amino}pyridin-2-yl)-1H-1,2,3-triazol-1-yl]cyclohexanecarboxamide], the half-inhibitory concentration (IC50) is 0.008 µM.
